The values below come from patent US20260102413A1, “TREATING PAIN ASSOCIATED WITH CENTRAL SENSITIZATION” (Medicon Pharmaceuticals, Inc., priority 2022, published 2026).

Molecules are shown by their SMILES.

Data set [1] relates to mice with chronic constriction injury of the left sciatic nerve (PTPN). As to the kind of experiment: von Frey PWT, chronic constriction injury (CCI) model of PTPN, topical compounds. The class given is in vivo, mouse. Particulars: PI, PN 5% on left hind paw 3x/day 14 days; day 14. As to the method:
The PWT test was performed following ligation, but prior to treatment to determine baseline values. The PWT was then further measured on day 14.

Data set [2] has as its system mice with paclitaxel-induced CIPN. Put plainly: von Frey PWT, paclitaxel CIPN model, orally administered compounds. Format: in vivo, mouse. Particulars: mouse, in vivo.
Excerpt: CIPN was induced in mice with chemotherapeutic agents using established protocols (Carozzi et al, 2010; Currie et al, 2019; Eldridge et al, 2020). […] This dosing regimen of paclitaxel produces pain associated with CIPN with time courses that are similar to those of pain after paclitaxel administration in cancer patients.
Group 1: naïve mice (i.e. no paclitaxel, n=8) • 2. Group 2: paclitaxel only (n=8) • 3. Group 3: paclitaxel plus vehicle (n=8) • 4. […] Group 5: paclitaxel pluse sulindac (n=8)
The PWT test was performed on day 7.
Phospho-naproxen (PN) and naproxen were given by oral gavage, three times a day for 7 days. Their doses were as follows: PN, 65 mg/kg; naproxen, 35 mg/kg (equimolar to PN). The response of mechanical allodynia to phospho-naproxen (PN) and naproxen was tested on day 7.
(§1) This dosing regimen of paclitaxel produces pain associated with CIPN with time courses that are similar to those of pain after paclitaxel administration in cancer patients.
Phospho-ibuprofen (PI) (Formula III), phospho-glycerol-ibuprofen (PGI) (Formula LXXI), phospho-ibuprofen-amide (PIA) (Formula XI), and ibuprofen were given by oral gavage, three times a day for 6 days. Their doses were as follows: ibuprofen, 40 mg/kg; PI, 80 mg/kg; PIA, 80 mg/kg; all three were equimolar.
The response of mechanical allodynia to these compounds was tested on day 6, using the PWT test.
as §1
NO-sulindac (Formula XLIV), HS-sulindac (Formula XXXIV), platinum-sulindac (Formula LXVII), and NOSH-1 (Formula LIX) were given by oral gavage, three times a day throughout the study period. Their doses were all 100 mg/kg.
The response of mechanical allodynia to these compounds was tested on the days set out in the table below, via the PWT test.
LXIX was given by oral gavage, once a day for 14 days at a dose of 100 mg/kg.
The response of mechanical allodynia to these compounds was tested on day 14, via the PWT test.

The subject of data set [3] is mice with paclitaxel-induced neuropathic pain (CIPN). Put plainly: von Frey paw withdrawal threshold (mechanical allodynia), paclitaxel-induced CIPN / central sensitization, treatment of established pain, topical test compounds. The class given is in vivo, mouse. As to the method:
Paw withdrawn, licking or shaking were considered positive responses.
(§2) The first doses were administered 5 days after the last administration of paclitaxel (i.e., at day 0).
The PWT test was performed prior to the administration of paclitaxel (day −8) to establish the threshold in mice without neuropathic pain associated with CIPN (the value shown is an average of the PWT in all groups at day −8).
Pain associated with CIPN was established in line with the experiments disclosed herein. Mice were treated with naproxen 2.4% (equimolar to PN 5%), aspirin 1.7% (equimolar to PA2 5%); or ibuprofen 2.5% (equimolar to PI 5%) or vehicle applied topically to both hind paws 3×/day for 14 days.
CIPN was induced in mice with chemotherapeutic agents using established protocols (Carozzi et al, 2010; Currie et al, 2019; Eldridge et al, 2020).
The first doses were administered 1 day after the last administration of paclitaxel (i.e., at day 0).
as §2
The PWT test was performed on day 21, at the end of the experiment, but was also additionally determined on day 14 for LXIX.

Another data set can be described thus: in vivo. To be noted: Sprague-Dawley, rat, po, 95 mg/kg; for AUC(0-t): AUC0-24 h; for AUC(0-t) / Cmax / Tmax: single oral dose PN 95 mg/kg, rats. The procedure:
Approximately 800 μL of blood were collected through cardiac puncture and immediately centrifuged.
Tissue samples were harvested using separate dissection instruments for each tissue sample to avoid cross contamination, and snap frozen. The levels of the test drug were determined by HPLC.
As previously described (Wen et al, 2019), each plasma sample was mixed with double volume of acetonitrile and centrifuged at 13,200 rpm for 15 min. Tissue samples were weighed, ddH2O (100-300 μL, depending on tissue weight) was added, and they were homogenized. Following addition of acetonitrile (twice the volume of the homogenate), the mixture was sonicated for 10 min, centrifuged at 13,200 rpm for 15 min, and analyzed by HPLC, as reported (Wen et al, 2019).
It was performed following a previously reported method (Xie et al, 2012). Briefly, the HPLC system consisted of a Waters Alliance 2695 Separations Module (Milford, MA, USA) equipped with a Waters 2998 photodiode array detector (328 nm) and a Thermo Hypersil BDS C18 column (150×4.6 mm, particle size 3 μm). The mobile phase consisted of a gradient between solvent A (formic acid, CH3CN, H2O (0.1:4.9:95 v/v/v)) and solvent B (CH3CN) at a flow rate of 1 mL·min−1 at 30° C. We applied gradient elution from 30 to 100% solvent B from 0-6 min, and it was maintained at 100% solvent B until 8 min.
The methods are identical to those used in Example 27.
A single dose of PN or PSA was given by oral gavage to groups of three Sprague-Dawley rats, which were euthanized and dissected according to the early example. The oral gavage solution of phosphonaproxen was prepared by dissolving in 10% DMSO and then suspending it in corn oil.

Data set [4] deals with mice with NTG-induced migraine. As to the kind of experiment: von Frey PWT, NTG-induced migraine model, oral or intraperitoneal compounds. The class given is in vivo, mouse. To be noted: mouse, in vivo. As to the method:
Phosphonaproxen (Formula VIII), and its parent compound, naproxen, were administered orally to each mouse group. All compounds were administered at equimolar doses. In particular, phosponaproxen was administered at 65 mg/kg, and naproxen was administered at 35 mg/kg, 30 minutes after NTG administration. The response of mechanical allodynia was tested 30 minutes after administration.

Consider `CCOP(=O)(OCC)OCCCCOC(=O)C(C)c1ccc2cc(OC)ccc2c1` (stereo not shown) [PN, phospho-naproxen], for which the “PWT, g Mean ± SEM” value turned out to be 1.70 ± 0.12 g in data set [1], 0.66 ± 0.03 g in data set [2] and 1.48 ± 0.22 g in data set [4]. For the same compound, the “Paw-withdrawal threshold, g Mean ± SEM, Day 0” value in data set [3] (group value after paclitaxel, before study drug) came to 0.64 ± 0.06 g. The “Paw-withdrawal threshold, g Mean ± SEM, Day 14” value in data set [3] (mouse, in vivo) was 1.19 ± 0.09 g. In the data set on carboxylesterases, the “hydrolysis by carboxylesterases, times slower than PS” value is reported as “about 5 times”. The half-life (usually how long it takes for the measured level to halve) in the data set “in vivo” was 540 min. Further, the AUC(0-t) – broadly, the area under the concentration-time curve up to a stated or last time point – in the data set “in vivo” (blood) stood at 1.7 µM·h; in the data set “in vivo” (cerebellum) it was 3.1 µM·h; in “in vivo” (medulla), 6.9 µM·h; in the data set “in vivo” (stomach) it was 4340 µM·h; in the data set “in vivo” (vagus nerve), 63.1 µM·h. For the same compound, the highest concentration (Cmax) (in general, the highest concentration seen after dosing) in the data set “in vivo” (blood) worked out at 3.5 ± 1.2 µM; in “in vivo” (cerebellum), 1.2 ± 0.02 µM; in “in vivo” (medulla) it was 3.1 ± 0.6 µM; in the data set “in vivo” (stomach), 717.2 ± 5 µM; in the data set “in vivo” (vagus nerve), 24.2 ± 3.1 µM. In addition, the time of peak concentration (Tmax) (as a rule, the time from dosing to the highest level) is 60 min in the data set “in vivo” (blood); 30 min in “in vivo” (cerebellum); 30 min in the data set “in vivo” (medulla); 60 min in “in vivo” (stomach); 30 min in the data set “in vivo” (vagus nerve).
